Results taken from ChEMBL document CHEMBL1201862, “PubChem BioAssay data set” (2004).
Calls of active or inactive are those of the source.

How the values were obtained:
[1] = test system: HEK293; test: cells; format: functional, cell-based; conditions: Homo sapiens
[2] = target: Nucleotide-binding oligomerization domain-containing protein 2 (Homo sapiens, UniProt Q9HC29); test: inhibition of NOD2-driven NF-kB reporter – cell-based, luminescence, uHTS, HEK293 (AID 1566); format: functional
[3] = test system: HEK293; test: NOD2 signaling inhibitors in MDP-stimulated cells, cell-based, uHTS, luminescence (AID 2001); format: functional; conditions: Homo sapiens
[4] = Luminescence Cell-Based Dose Retest to Confirm Inhibitors of Cancer Stem Cells. [Related pubchem assays (depositor defined):AID2717, AID2721]; format: functional; conditions: Homo sapiens
[5] = test system: HEK293; test: cells; format: functional, cell-based; conditions: Homo sapiens; remark: listed apart in the source
[6] = test system: HEK293; test: cells; format: functional, cell-based; conditions: Homo sapiens; remark: listed apart in the source
[7] = test system: HEK293; test: inhibition of NOD1-driven NF-kB reporter – cell-based, luminescence, uHTS, primary screen (AID 1578); format: functional; conditions: Homo sapiens
[8] = target: T1, Microphthalmia-associated transcription factor (Homo sapiens, UniProt O75030); test: reducers of TRPM1 reporter luminescence, concentration series – cell-based, SK-MEL-5, cherry-picked, set 3, MITF inhibitor project, dose response (AID 493073); format: functional;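 note: SK-MEL-5 melanoma cells with luciferase driven by the MITF target TRPM1 promoter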
T1 sequence (O75030 whole entry): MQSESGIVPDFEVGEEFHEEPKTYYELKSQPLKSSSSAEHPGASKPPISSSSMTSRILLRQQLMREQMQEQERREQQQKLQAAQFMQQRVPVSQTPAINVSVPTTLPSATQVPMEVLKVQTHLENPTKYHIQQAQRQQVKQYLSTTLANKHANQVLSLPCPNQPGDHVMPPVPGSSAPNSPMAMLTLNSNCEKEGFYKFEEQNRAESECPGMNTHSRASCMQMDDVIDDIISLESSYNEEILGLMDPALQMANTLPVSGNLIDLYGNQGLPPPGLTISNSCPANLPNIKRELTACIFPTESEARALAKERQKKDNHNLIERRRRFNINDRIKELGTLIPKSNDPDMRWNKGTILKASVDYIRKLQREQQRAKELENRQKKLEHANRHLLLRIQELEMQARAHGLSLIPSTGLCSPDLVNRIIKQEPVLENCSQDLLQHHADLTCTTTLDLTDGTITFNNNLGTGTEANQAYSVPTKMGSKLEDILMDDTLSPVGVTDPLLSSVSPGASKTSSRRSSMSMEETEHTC

[9] = test system: H9c2; test: cells; format: functional, cell-based; conditions: Rattus norvegicus, H9c2, Myocardium;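 note: confirmatory concentration-response retest of ultra-high-throughput screening hits for modulation of myocardial damage; cell death induced by hydrogen peroxide oxidative stress; compound pretreatment for 60 min then peroxide exposure for 2 h; potency is for protecting the cells against peroxide damage rather than for killing them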
[10] = target: T2, Short transient receptor potential channel 4 (Mus musculus, UniProt Q9QUQ5); test: calcium entry via TRPC4 opening agents – cell-based, HEK293 TRPC4/mu-opioid, Fluo-4 calcium, dose response (AID 434937); format: functional
T2 sequence (Q9QUQ5 whole entry): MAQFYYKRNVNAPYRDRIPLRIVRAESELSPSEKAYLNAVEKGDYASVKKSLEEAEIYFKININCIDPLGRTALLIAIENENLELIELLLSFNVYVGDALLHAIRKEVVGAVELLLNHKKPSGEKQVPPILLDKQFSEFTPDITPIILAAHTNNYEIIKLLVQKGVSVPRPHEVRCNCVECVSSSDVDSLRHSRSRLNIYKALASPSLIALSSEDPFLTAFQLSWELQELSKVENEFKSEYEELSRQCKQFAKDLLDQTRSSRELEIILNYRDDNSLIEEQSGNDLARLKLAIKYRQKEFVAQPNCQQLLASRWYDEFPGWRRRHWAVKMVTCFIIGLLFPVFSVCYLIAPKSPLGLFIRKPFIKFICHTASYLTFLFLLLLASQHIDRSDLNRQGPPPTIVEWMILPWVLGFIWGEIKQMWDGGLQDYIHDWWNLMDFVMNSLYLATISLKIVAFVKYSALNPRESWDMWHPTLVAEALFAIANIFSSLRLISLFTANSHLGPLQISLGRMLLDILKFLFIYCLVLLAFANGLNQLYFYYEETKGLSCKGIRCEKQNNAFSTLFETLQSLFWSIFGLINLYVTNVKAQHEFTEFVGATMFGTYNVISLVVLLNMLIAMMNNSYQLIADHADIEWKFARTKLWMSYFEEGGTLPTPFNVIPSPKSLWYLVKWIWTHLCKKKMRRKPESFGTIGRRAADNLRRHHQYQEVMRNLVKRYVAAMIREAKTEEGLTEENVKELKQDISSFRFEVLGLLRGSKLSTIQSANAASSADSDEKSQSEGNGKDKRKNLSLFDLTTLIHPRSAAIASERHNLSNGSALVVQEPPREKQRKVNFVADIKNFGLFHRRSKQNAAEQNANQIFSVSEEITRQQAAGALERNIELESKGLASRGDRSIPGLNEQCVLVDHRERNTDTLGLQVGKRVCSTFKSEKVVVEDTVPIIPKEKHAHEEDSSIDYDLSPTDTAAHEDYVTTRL

[11] = target: T3, Voltage-gated N-type calcium channel alpha-1B subunit/Amyloid beta A4 precursor protein-binding family A member 1 (Homo sapiens, UniProt Q00975+Q02410); format: protein assay
T3 sequence (Q00975 whole entry): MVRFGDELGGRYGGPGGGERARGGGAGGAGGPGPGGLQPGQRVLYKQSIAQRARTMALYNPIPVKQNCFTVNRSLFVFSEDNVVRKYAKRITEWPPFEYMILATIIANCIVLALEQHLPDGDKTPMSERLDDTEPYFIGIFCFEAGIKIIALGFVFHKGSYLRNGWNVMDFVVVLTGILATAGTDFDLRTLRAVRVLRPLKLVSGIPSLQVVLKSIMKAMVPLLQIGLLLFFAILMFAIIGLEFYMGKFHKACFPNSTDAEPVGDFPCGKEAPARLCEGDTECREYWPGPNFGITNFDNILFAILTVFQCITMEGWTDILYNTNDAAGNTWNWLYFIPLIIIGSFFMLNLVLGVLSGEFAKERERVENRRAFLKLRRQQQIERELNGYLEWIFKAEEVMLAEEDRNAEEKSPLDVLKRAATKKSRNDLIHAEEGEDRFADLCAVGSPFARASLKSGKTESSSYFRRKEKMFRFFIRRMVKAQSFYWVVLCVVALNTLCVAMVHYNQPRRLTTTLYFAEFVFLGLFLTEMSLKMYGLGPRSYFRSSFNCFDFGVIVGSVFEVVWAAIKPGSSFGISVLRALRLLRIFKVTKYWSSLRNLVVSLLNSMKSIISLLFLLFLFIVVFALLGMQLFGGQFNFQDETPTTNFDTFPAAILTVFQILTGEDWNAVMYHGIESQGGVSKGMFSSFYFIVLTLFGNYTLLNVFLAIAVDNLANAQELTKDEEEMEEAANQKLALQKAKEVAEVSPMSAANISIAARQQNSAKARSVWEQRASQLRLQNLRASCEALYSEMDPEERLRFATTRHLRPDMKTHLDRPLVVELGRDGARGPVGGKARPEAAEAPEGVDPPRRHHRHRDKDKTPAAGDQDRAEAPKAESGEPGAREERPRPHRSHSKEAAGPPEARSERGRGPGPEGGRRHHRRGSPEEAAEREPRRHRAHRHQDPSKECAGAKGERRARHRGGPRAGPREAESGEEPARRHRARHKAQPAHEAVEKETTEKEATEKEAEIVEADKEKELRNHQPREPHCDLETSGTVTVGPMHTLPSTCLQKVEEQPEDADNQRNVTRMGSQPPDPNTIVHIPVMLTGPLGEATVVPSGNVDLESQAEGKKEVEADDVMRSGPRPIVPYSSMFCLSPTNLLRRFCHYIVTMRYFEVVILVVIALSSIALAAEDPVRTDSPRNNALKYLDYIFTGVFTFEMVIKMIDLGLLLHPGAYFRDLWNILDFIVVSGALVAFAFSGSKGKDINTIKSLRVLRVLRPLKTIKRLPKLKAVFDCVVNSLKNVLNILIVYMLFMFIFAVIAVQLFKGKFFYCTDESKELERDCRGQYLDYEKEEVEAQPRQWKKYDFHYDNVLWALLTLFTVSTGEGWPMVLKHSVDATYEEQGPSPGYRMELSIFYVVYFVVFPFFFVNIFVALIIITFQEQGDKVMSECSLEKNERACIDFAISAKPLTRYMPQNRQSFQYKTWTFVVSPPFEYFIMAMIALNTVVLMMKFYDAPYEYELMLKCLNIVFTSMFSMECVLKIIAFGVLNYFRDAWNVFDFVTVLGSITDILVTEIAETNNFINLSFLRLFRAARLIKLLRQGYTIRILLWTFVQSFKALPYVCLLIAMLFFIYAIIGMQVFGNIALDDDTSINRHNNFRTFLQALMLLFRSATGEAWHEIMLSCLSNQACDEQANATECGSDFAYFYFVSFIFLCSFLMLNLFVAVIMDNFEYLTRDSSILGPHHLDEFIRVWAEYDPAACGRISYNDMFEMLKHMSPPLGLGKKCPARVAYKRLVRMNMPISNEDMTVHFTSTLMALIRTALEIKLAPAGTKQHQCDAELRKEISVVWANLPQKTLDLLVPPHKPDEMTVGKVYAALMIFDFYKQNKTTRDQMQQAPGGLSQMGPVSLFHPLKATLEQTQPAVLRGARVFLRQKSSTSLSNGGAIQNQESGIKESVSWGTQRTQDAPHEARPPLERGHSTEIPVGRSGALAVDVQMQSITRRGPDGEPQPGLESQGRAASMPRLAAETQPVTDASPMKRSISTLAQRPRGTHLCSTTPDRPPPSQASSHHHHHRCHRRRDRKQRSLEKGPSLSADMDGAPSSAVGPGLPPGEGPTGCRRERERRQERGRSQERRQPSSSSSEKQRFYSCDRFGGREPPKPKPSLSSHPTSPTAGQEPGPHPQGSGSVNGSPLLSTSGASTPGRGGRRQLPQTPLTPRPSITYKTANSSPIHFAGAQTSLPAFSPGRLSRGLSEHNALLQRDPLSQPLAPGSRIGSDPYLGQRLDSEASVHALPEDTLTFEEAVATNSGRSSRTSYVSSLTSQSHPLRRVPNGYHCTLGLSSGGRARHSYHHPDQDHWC
T3 sequence (Q02410 whole entry): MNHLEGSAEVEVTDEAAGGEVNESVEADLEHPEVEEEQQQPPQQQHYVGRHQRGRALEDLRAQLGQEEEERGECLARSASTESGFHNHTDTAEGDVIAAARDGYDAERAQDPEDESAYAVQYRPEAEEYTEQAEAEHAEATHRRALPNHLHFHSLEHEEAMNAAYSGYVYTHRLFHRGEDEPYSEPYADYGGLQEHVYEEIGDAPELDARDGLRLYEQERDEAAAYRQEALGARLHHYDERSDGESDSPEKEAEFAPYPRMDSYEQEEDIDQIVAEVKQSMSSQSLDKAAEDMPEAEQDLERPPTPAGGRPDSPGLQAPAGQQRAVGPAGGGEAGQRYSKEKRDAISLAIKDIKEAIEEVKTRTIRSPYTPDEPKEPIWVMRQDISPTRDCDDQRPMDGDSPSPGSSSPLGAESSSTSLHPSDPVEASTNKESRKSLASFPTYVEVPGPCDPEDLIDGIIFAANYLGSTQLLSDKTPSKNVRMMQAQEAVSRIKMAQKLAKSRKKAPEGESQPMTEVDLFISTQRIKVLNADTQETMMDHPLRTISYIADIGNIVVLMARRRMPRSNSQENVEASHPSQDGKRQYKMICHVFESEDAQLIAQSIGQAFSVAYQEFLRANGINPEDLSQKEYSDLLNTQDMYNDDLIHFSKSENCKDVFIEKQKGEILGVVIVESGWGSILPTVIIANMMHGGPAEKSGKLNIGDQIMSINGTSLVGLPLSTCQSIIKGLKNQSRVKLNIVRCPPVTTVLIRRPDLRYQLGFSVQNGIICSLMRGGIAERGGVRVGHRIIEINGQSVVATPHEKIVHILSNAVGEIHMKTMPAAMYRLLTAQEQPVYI

[12] = target: T3, Voltage-gated N-type calcium channel alpha-1B subunit/Amyloid beta A4 precursor protein-binding family A member 1; format: protein assay; remark: listed apart in the source
[13] = target: T4, Rac GTPase-activating protein 1 (Homo sapiens, UniProt Q9H0H5); test: blockers of MgcRacGAP-driven Rac1 GTP hydrolysis – biochemical, ADP Hunter fluorescence, primary and confirmatory, confirmation (AID 624330); format: functional
T4 sequence (Q9H0H5 whole entry): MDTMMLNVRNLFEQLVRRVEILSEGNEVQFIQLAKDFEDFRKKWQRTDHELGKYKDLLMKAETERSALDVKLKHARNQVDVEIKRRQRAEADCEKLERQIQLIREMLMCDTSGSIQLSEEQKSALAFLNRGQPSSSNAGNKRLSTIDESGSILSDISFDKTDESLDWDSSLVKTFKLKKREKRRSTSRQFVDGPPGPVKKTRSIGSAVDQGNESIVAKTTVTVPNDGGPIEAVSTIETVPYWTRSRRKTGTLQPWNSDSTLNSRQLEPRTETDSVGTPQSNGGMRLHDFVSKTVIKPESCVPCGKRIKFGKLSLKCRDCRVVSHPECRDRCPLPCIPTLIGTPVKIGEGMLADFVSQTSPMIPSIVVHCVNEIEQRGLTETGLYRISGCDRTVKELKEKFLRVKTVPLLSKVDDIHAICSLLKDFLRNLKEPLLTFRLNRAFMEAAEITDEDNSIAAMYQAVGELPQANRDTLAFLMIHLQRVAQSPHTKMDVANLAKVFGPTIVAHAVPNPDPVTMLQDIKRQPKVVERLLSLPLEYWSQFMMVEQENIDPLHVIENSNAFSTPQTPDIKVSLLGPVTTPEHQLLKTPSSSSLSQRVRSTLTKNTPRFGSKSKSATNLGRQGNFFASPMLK

[14] = viability loss in HeLa cells – cytotoxicity control for MgcRacGAP inhibitor project, dose response (AID 624300); format: functional
[15] = target: Luciferin 4-monooxygenase (Photinus pyralis, UniProt P08659); test: inhibition of purified Photinus pyralis luciferase – biochemical, luminescence, dose response (AID 1891)
Luciferin 4-monooxygenase, sequence (P08659 whole entry): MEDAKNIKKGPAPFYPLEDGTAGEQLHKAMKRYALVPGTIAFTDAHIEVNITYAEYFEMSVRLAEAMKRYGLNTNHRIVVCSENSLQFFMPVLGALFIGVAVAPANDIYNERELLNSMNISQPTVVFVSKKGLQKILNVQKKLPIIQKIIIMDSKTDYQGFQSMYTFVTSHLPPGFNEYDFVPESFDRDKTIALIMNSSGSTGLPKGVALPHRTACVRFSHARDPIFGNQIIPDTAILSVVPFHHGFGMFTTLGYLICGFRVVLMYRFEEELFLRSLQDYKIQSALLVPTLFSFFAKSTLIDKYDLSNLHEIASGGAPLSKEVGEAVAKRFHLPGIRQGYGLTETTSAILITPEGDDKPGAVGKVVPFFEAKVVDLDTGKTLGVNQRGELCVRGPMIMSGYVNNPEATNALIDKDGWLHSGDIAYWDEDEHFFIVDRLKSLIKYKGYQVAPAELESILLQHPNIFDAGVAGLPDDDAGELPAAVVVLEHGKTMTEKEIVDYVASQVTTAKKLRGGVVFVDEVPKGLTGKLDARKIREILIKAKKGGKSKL

[16] = Luminescence Cell-Based Dose Confirmation HTS to Identify Inhibitors of Platelet Dense Granule Release. [Related pubchem assays: 1663 (Primary HTS), 1678 (Summary of Project)]; format: functional
[17] = target: T5, High affinity choline transporter 1 (Homo sapiens, UniProt Q9GZV3); test: human choline transporter blockers, potency – cell-based, 10-point CRC, membrane potential dye, dose response (AID 588401); format: functional;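 note: membrane potential dye fluorescence of choline-evoked depolarization via CHT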
T5 sequence (Q9GZV3 whole entry): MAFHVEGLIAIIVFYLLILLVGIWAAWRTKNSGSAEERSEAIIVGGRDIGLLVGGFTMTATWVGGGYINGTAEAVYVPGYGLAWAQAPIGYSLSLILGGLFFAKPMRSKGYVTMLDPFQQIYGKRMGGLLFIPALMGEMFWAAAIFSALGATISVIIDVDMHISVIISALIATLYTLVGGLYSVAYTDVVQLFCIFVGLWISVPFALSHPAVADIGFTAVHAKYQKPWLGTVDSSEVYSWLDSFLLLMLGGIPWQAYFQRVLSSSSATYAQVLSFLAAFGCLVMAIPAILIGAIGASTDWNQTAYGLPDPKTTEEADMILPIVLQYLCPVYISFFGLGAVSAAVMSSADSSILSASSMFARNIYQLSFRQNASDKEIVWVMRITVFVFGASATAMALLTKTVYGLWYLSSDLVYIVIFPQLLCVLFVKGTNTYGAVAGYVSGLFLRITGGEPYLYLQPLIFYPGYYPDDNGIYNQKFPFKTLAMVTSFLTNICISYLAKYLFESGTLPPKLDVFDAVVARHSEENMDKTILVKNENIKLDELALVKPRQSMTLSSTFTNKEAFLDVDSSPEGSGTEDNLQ

[18] = target: T6, Eukaryotic translation initiation factor 2-alpha kinase 3 (Homo sapiens, UniProt Q9NZJ5); test: Dose response cell-based high-throughput screening assay to measure PERK inhibition. [Related pubchem assays: 1416 ]; format: functional
T6 sequence (Q9NZJ5 whole entry): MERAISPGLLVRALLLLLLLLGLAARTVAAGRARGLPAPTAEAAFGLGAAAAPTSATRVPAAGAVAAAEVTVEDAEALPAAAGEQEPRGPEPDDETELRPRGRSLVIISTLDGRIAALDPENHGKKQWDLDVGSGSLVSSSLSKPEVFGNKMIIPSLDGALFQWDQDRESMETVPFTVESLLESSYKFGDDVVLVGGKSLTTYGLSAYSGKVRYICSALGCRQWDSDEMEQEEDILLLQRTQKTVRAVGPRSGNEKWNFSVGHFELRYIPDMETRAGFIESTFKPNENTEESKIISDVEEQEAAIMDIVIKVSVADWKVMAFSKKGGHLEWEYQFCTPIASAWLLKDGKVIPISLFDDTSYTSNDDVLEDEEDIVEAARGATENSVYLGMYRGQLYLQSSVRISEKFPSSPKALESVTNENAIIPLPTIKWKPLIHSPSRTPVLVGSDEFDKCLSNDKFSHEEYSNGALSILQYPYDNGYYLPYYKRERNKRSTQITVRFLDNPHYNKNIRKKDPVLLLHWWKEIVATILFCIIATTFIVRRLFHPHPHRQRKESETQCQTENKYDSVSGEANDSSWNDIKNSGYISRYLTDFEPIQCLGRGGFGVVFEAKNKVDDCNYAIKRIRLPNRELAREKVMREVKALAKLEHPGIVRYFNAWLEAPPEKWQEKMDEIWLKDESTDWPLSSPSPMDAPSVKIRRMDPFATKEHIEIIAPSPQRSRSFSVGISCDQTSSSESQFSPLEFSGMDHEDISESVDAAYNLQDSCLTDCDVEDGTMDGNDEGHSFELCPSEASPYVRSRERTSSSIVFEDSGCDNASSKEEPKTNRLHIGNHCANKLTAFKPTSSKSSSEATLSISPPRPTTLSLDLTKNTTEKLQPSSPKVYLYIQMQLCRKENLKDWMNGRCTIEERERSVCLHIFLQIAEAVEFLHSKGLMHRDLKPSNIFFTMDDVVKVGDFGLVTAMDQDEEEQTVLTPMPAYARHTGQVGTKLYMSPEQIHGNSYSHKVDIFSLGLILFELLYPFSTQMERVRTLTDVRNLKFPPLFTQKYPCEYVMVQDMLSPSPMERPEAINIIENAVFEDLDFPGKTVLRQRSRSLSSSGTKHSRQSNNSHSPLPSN

[19] = target: T6, Eukaryotic translation initiation factor 2-alpha kinase 3; test: Counterscreen assay for PERK inhibitors: Dose response cell-based high throughput screening assay to measure inhibition of PERK at 6 hours. [Related pubchem assays: 1522, 1416 ]; format: functional
[20] = target: T5, High affinity choline transporter 1; test: human choline transporter blockers, potency – cell-based, 5-point CRC, membrane potential dye, dose response (AID 504840); format: functional
[21] = viability of uninfected HEp-2 cells – cell-based, HTS, cytotoxicity control for RSV inhibitor project, dose response (AID 2410); format: functional; conditions: human respiratory syncytial virus
[22] = cells

Nucleotide-binding oligomerization domain-containing protein 2, sequence (Q9HC29 whole entry, the tested form may be a part): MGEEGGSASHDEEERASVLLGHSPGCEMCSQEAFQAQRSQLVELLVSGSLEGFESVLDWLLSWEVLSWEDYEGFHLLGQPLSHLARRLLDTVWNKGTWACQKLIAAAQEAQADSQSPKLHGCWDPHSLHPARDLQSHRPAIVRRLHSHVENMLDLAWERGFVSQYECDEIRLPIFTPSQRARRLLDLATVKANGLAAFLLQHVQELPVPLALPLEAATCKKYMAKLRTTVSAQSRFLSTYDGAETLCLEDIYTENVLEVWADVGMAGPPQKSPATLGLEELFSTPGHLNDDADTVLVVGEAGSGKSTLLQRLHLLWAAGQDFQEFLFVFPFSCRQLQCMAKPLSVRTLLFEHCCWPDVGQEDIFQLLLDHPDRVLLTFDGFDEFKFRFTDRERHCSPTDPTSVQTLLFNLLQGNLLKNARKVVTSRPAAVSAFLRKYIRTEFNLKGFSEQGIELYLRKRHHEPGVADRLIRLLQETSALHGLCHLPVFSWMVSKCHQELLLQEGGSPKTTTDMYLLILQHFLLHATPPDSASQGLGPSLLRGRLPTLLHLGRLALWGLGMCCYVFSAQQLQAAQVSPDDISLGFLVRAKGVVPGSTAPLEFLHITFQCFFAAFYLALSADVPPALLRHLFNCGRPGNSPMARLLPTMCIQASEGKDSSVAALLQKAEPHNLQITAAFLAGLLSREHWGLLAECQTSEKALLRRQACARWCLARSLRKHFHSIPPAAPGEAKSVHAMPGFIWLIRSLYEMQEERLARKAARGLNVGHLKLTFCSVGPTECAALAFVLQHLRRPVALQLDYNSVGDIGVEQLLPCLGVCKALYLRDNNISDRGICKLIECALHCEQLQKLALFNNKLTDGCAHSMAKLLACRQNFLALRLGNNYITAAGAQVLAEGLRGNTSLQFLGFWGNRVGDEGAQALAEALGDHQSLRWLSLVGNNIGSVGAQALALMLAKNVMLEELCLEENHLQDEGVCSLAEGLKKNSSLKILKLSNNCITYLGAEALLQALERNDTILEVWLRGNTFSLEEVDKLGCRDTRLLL

Row | SMILES | IC50 [1] | EC50 [2] | IC50 [3] | IC50 [5] | IC50 [6] | EC50 [7] | IC50 [9] | EC50 [10] | further results
1 | COc1cc(Br)cc(/C=C/c2ccc3cccc(O)c3n2)c1O | 8.18 µM (active) | > 20 µM (inactive) | 6.96 µM (inactive) | > 20 µM (inactive) | > 20 µM (inactive) | 5.78 µM (active) | – | – | AC50 [4]: 1.44 µM (active)
2 | COc1ccc2cc3cc(C(=O)NCCc4ccc(OC)c(OC)c4)oc3nc2c1 | 4.8 µM (active) | 7.83 µM (active) | 5.18 µM (active) | 18.9 µM (active) | > 20 µM (inactive) | 9.01 µM (active) | > 79 µM (inactive) | – | AC50 [8]: 16.2 µM (active)
3 | CCN1CCN(c2ccc(S(=O)(=O)N3CCCCC3)cc2NC(=O)c2cccc(C)c2[N+](=O)[O-])CC1 | – | – | – | – | – | – | – | 2.99 µM (active) | –
4 | COc1cc(/C=C/c2nc3ccccc3c(=O)n2-c2ccccc2O)ccc1O | – | – | – | – | – | – | 9.09 µM (active) | – | IC50 [11]: > 56.8 µM (not active); IC50 [12]: > 50 µM (inactive); IC50 [13]: 40.6 µM (active); CC50 [14]: 94 µM (active)
5 | Nc1nc(Cl)nc2c1ncn2[C@@H]1O[C@H](CO)[C@@H](O)[C@H]1O | – | – | – | – | – | – | – | – | EC50 [15]: > 112 µM (not active); EC50 [16]: < 0.701 µM (active); IC50 [17]: 0.336 µM (active); EC50 [18]: > 55.7 µM (not active); EC50 [19]: > 55.7 µM (not active); IC50 [20]: 0.74 µM (active)
6 | CC(C)(C)c1cc(O)c(C(C)(C)C)cc1O | – | – | – | – | – | – | – | 0.376 µM (active) | CC50 [21]: > 50 µM (active); IC50 [22]: 37.2 µM (active)
